Measured values from patent US20200337304A1, “ANTIMICROBIAL PARTICLES AND SANITIZATION METHODS” (priority 2017, published 2020).

How the values were obtained:
Listeria innocua = assay: Inactivation of bacteria in simulated wash water; type: cell-based
Procedure: The activity and inactivation of bacteria in simulated wash water exposed to the functionalized particles and conventional chlorine sanitizers were evaluated and compared. More than a 5-log reduction of Listeria innocua in wash water was obtained after a 0.5-min exposure to YCWPs based sanitizer at the concentration of 0.1 mg/mL. In comparison, the conventional chlorine-based sanitizer (sodium hypochlorite) needed 1.5 min to achieve a 5-log reduction. In the presence of organic matter (COD=2000 mg/L), more than 5 log reduction of Listeria innocua in wash water was obtained after 5 min exposure to YCWPs based sanitizer.

L. innocua 3-day biofilm = assay: Inactivation of 3-day cultured biofilm on plastic surface, plate counting assay; type: cell-based, Listeria innocua; conditions: 1-hour exposure
Procedure: FIG. 6A is a graph illustrating inactivation of L. innocua in 3-day biofilm after 1-hour exposure: (a) metabolic activity of biofilm; (b) results of plate counting assay
The antimicrobial activity was characterized based on the metabolic activity of the biofilm measured using Resazurin and a plate counting assay.
The metabolic activity of biofilm after a 1-hour exposure to the particulate sanitizer was evaluated. The time required to achieve maximum fluorescence intensity indicated the relative level of metabolic activity of bacterial cells under different incubation conditions. Listeria biofilms that were incubated with PBS were treated as a control. […] The conventional sanitizer (sodium hypochlorite) only achieved 3-log reduction after a 1-hour exposure.
Pre-formed biofilms were treated with either a selected particle-based sanitizer or with a conventional sanitation procedure for the sanitation of a food contract surface. […] Quantification of the treatment was assessed based on measuring the changes in the metabolic activity of bacterial cells. Quantification of the residual biomass was conducted using crystal violet staining and calcofluor labeling and the standard plate counting of the bacterial cells after dispersing the biofilms using an ultrasonic washer.

E. coli O157:H7 = assay: Inactivation of bacteria on fresh produce (lettuce leaf) surfaces; type: cell-based, Escherichia coli O157:H7; conditions: Example 2; 20-min exposure, YCWPs@halamine 0.25 mg/ml; sodium hypochlorite 20 ppm free chlorine
Procedure: FIG. 6B is a graph illustrating inactivation of E. coli O157:H7 on fresh produce surfaces after 20-min exposure to YCWPs@halamine (0.25 mg/ml).
The inactivation of bacteria on fresh produce surfaces was also evaluated. These YCWPs based sanitizer was also found to be effective in causing more than 5 log reductions in E. coli O157:H7 on the surface of lettuce leaves as shown in FIG. 6B. The conventional chlorine-based sanitizer (sodium hypochlorite, 20 ppm free chlorine) achieved less than 2-log reduction of the inoculated bacteria.
To inoculate fresh produce, samples (e.g., spinach, lettuce, tomato, and orange) were first rinsed with 70% ethanol and dried at 25° C. before sample preparation. Fresh produce samples were then prepared by cutting spinach and lettuce leaves into disks with 1 cm of diameter and tomato and orange skins into squares of 9 cm^2. […]
After inoculation and incubation, the meat and fresh produce samples were transferred to a simulated wash bath with added particle-based sanitizers. […] The samples were stirred in a shaking bath a speed of 250 rpm for a pre-determined period (1, 2, 5, and 10 min). […]
To quantify the reduction in microbial count, the samples after treatment were transferred to sterile tubes containing silicon-carbide beads and 10 mL of PBS, and vortexed for 60 seconds to recover the attached bacteria. […]

OCl [sodium hypochlorite]
reduction of bacterial population in wash water in the presence of organic matter (Listeria innocua; COD=2000 mg/L, 20 ppm free chlorine, 20 minutes of exposure): did not reduce the bacterial population
time needed to achieve a 5-log reduction of Listeria innocua in wash water (Listeria innocua; simulated wash water): 1.5 min
reduction of the bacterial population in the 3-day biofilm (L. innocua 3-day biofilm): 3 log
reduction in E. coli O157:H7 on the surface of lettuce leaves (E. coli O157:H7): less than 2 log
